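Exposure lasted 48 hours, with cells grown in 96-well plates and compounds tested at five concentrations. Here, GI50 denotes the concentration required for 50% inhibition of growth.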 Active and inactive are the calls of the source. Cut-off read from the data, not from the text of the source: active = GI50 up to about 1.1 µM and inactive = higher.
Assays:
Assay in all cases: DTP human tumour cell line panel, 48 h
[1] = test system: Malme-3M
[2] = test system: UACC-257
[3] = test system: M14
[4] = test system: NCI-H522
[5] = test system: UACC-62
[6] = test system: A549
[7] = test system: RXF 393
[8] = test system: HCC 2998
[9] = test system: SN12C
[10] = test system: 786-0
[11] = test system: K562
[12] = test system: HL-60
[13] = test system: DMS-273
[14] = test system: M19-MEL
[15] = test system: SK-MEL-28
[16] = test system: IGROV-1
[17] = test system: TK-10
[18] = test system: SF-268
[19] = test system: SNB-78
[20] = test system: SW-620
[21] = test system: A498
[22] = test system: HT-29
[23] = test system: SF-539
[24] = test system: LOX IMVI
[25] = test system: SF-295
[26] = test system: XF498
[27] = test system: CCRF-CEM
[28] = test system: EKVX
[29] = test system: HOP-92
[30] = test system: OVCAR-8
[31] = test system: SK-OV-3
[32] = test system: SNB-19
[33] = test system: SK-MEL-5
[34] = test system: SK-MEL-2
[35] = test system: DLD-1
[36] = test system: UO-31
[37] = test system: KM-20L2
[38] = test system: KM12
[39] = test system: LXFL 529
[40] = test system: OVCAR-3
[41] = test system: COLO 205
[42] = test system: CAKI-1
[43] = test system: NCI-H226
[44] = test system: RPMI-8226
[45] = test system: SNB-75
[46] = test system: MOLT-4
[47] = test system: HOP-62
[48] = test system: U-251
[49] = test system: NCI-H460
[50] = test system: HCT-15
[51] = test system: NCI-H23
[52] = test system: OVCAR-4
[53] = test system: HCT-116
[54] = test system: OVCAR-5
[55] = test system: HOP-18
[56] = test system: DMS-114
[57] = test system: ACHN
[58] = test system: SR

Measured: GI50

COc1cccc(N2C(=O)[C@H]3CC(C)c4c([nH]c5ccccc45)[C@H]3C2=O)c1 (some centres not stated)
> 100 µM: [50]
inactive: [1] 92.3 µM | [2] 42.9 µM | [3] > 100 µM | [4] 24.9 µM | [5] 39.4 µM | [6] 41.3 µM | [7] 13.9 µM | [8] > 100 µM | [9] 78 µM | [10] 21.7 µM | [11] 46 µM | [12] > 100 µM | [13] 79.4 µM | [14] 86.1 µM | [15] 62.4 µM | [16] > 100 µM | [17] 55.7 µM | [18] > 100 µM | [19] 33.3 µM | [20] > 10 µM | [21] 89.7 µM | [22] 36.1 µM | [23] 29.1 µM | [24] 50.6 µM | [25] 23.3 µM | [26] 55.7 µM | [27] 64.4 µM | [28] > 100 µM | [29] 20.7 µM | [30] 50 µM | [31] 27.7 µM | [32] 28.4 µM | [33] 63.8 µM | [34] 27.5 µM | [35] 80.5 µM | [36] 84.7 µM | [37] > 100 µM | [38] 57.5 µM | [39] 42.8 µM | [40] 40.1 µM | [41] 36.1 µM | [42] 39.6 µM | [43] 93.5 µM | [44] 38.9 µM | [45] 19.6 µM | [46] 74.1 µM | [47] 16.8 µM | [48] 38.5 µM | [49] > 100 µM | [51] 45.7 µM

CC1CCCC(C(=O)/C(=C/c2cccc(Cl)c2)C(=O)C(=O)O)C1 (configuration not stated)
active: [4] 0.0161 µM
13.8 µM: [50]
inactive: [1] > 100 µM | [2] 59.8 µM | [3] 29.7 µM | [5] 36.9 µM | [6] 60.7 µM | [8] 12.8 µM | [9] 72.1 µM | [10] 17.9 µM | [11] 19.5 µM | [12] 20 µM | [13] 34.8 µM | [14] 18.7 µM | [15] 37 µM | [16] 30.9 µM | [17] > 100 µM | [18] 42.1 µM | [19] 55.2 µM | [20] 14.5 µM | [21] > 100 µM | [22] 18.4 µM | [23] 27.5 µM | [25] 50.4 µM | [27] 19.3 µM | [52] 37.8 µM | [28] 47.1 µM | [29] 39 µM | [30] 20.3 µM | [31] 81.5 µM | [32] 33.8 µM | [33] 68.2 µM | [35] 20 µM | [36] 61.2 µM | [37] 25.9 µM | [38] 15.6 µM | [39] 19.7 µM | [53] 13.8 µM | [40] 24.7 µM | [41] 37.3 µM | [42] 33.3 µM | [43] > 100 µM | [54] > 100 µM | [44] 14.7 µM | [55] 91 µM | [45] 29.9 µM | [56] 21 µM | [46] 19 µM | [47] > 100 µM | [48] 17.3 µM | [49] 33 µM | [57] 39.4 µM | [51] 39.5 µM

O=C1CNS(=O)(=O)N1
inactive: [1] > 100 µM | [2] > 100 µM | [3] > 100 µM | [4] > 100 µM | [5] > 100 µM | [6] > 100 µM | [8] > 100 µM | [9] > 100 µM | [10] > 100 µM | [11] > 100 µM | [12] > 100 µM | [13] > 100 µM | [14] > 100 µM | [15] > 100 µM | [16] > 100 µM | [17] > 100 µM | [18] > 100 µM | [19] > 100 µM | [20] > 100 µM | [21] > 100 µM | [22] > 100 µM | [23] > 100 µM | [58] > 100 µM | [25] > 100 µM | [26] > 100 µM | [27] > 100 µM | [52] > 100 µM | [28] > 100 µM | [29] > 100 µM | [30] > 100 µM | [31] > 100 µM | [32] > 100 µM | [34] > 100 µM | [35] > 100 µM | [36] > 100 µM | [38] > 100 µM | [39] > 100 µM | [53] > 100 µM | [40] > 100 µM | [41] > 100 µM | [42] > 100 µM | [43] 14.5 µM | [44] > 100 µM | [45] > 100 µM | [56] > 100 µM | [46] > 100 µM | [47] > 100 µM | [51] > 100 µM

N#Cc1ccccc1NC(=O)C(=O)C(C(=O)c1ccccc1F)C1OC(=O)c2ccccc21 (configuration not stated)
30.1 µM: [50]
inactive: [2] 58.2 µM | [3] 82 µM | [4] 21 µM | [5] 41 µM | [6] 70.8 µM | [7] 44.3 µM | [8] 19.9 µM | [9] 28.2 µM | [11] 36.7 µM | [12] 20.9 µM | [13] 30.8 µM | [14] 29.7 µM | [15] 39.4 µM | [16] 86.1 µM | [17] > 100 µM | [18] 40.1 µM | [19] 25.8 µM | [20] > 100 µM | [21] > 100 µM | [22] 40 µM | [23] 24.8 µM | [24] 21.9 µM | [58] 17.1 µM | [25] 55.1 µM | [26] 84.7 µM | [27] 15.1 µM | [52] 65 µM | [28] 45.5 µM | [29] > 100 µM | [30] 40.7 µM | [31] 41.3 µM | [32] 32.4 µM | [33] 89.3 µM | [34] 24.1 µM | [35] 46.8 µM | [36] 43.8 µM | [37] 76.7 µM | [38] 41.2 µM | [39] 31 µM | [53] 34.2 µM | [41] 37.7 µM | [42] 64.4 µM | [43] 18.4 µM | [54] 65.6 µM | [44] 25 µM | [45] 38.4 µM | [56] 35.5 µM | [46] 25 µM | [47] 66.8 µM | [48] 15 µM | [49] 41.1 µM | [57] 80.7 µM | [51] 40.4 µM

COc1cc(CNc2ccc(C)cc2)cc(OC)c1OC
active: [4] 0.255 µM | [6] 0.5 µM | [7] 0.163 µM | [10] 0.384 µM | [11] 0.0826 µM | [12] 0.0764 µM | [13] 0.103 µM | [14] 0.33 µM | [16] 0.659 µM | [18] 0.741 µM | [20] 0.149 µM | [24] 0.621 µM | [58] 0.138 µM | [26] 0.962 µM | [27] 0.252 µM | [30] 0.624 µM | [31] 0.301 µM | [32] 0.533 µM | [33] 0.472 µM | [34] 0.229 µM | [35] 0.45 µM | [36] 0.807 µM | [37] 0.246 µM | [39] 0.635 µM | [40] 0.213 µM | [41] 0.219 µM | [44] 0.467 µM | [45] 0.316 µM | [56] 0.277 µM | [46] 0.331 µM | [47] 0.386 µM | [48] 0.356 µM | [49] 0.252 µM | [51] 0.361 µM
inactive: [29] 3.34 µM | [54] 1.74 µM

Cc1c2cc[n+](C)cc2c(C)c2c1[nH]c1ccc(OC(C)C)cc12
active: [9] 0.392 µM | [18] 0.474 µM | [39] 0.515 µM | [45] 0.239 µM
inactive: [1] 1.34 µM | [2] 2.37 µM | [3] 6.34 µM | [4] 1.47 µM | [5] 2.51 µM | [6] 2.01 µM | [12] 2.56 µM | [13] 2.19 µM | [14] 1.64 µM | [15] 2.97 µM | [16] 1.9 µM | [17] 19.8 µM | [20] 2.49 µM | [21] 6.35 µM | [22] 3.06 µM | [23] 1.39 µM | [24] 4.19 µM | [52] 2.16 µM | [28] 6.62 µM | [29] 2.6 µM | [33] 1.4 µM | [34] 1.66 µM | [36] 44.1 µM | [37] 3.58 µM | [38] 1.62 µM | [53] 2.91 µM | [40] 1.9 µM | [41] 1.28 µM | [54] 10.9 µM | [44] 6.1 µM | [55] 2.54 µM | [46] 3.16 µM | [49] 2.15 µM | [57] 11.6 µM | [51] 1.41 µM
> 100 µM: [50]

From ChEMBL document CHEMBL1201862, “PubChem BioAssay data set” (2004)
